# Starred links: 1 amine or outer side, 2 acyl side, 3 side chain; linkers in the order of their positions; H or OH if unused. Positions of bridges follow the written chain, without caps; N, C: chain ends. Non-standard residues stand in square brackets, D forms with d. Residues, ends and D or L forms follow the SMILES beside them. *: point of attachment. dAsp(3R-OH) = N[C@@H](C(=O)O)[C@@H](O)C(=O)O; X1 = NC[C@H](O)[C@@H](N[*:1])C(=O)[*:2]; X2 = CCC(C)(O)[C@H](N[*:1])C(=O)[*:2]; d(aIle) = CC[C@H](C)[C@@H](N)C(=O)O; d(aThr) = C[C@@H](O)[C@@H](N)C(=O)O; Myristoyl = CCCCCCCCCCCCCC(=O)*; dOrn = NCCC[C@@H](N)C(=O)O; hSer = N[C@@H](CCO)C(=O)O
# How the values were obtained:
# [1] = tested on: neutropenic female BALB/c mice; assay: Toxicity and Maximum Tolerated Dose; assay type: in vivo, mouse
# [2] = Pharmacokinetics after IV slow bolus in uninfected mice; assay type: in vivo, mouse (female BALB/c); details: 5 mg/kg IV; for Plasma concentration, Mean: mean of n = 3
# [3] = human volunteers; no reference given; cited from earlier work
molecule,measurement,setting,value
CCCCCCCCCCCCCC(=O)N[C@H](CCCN)C(=O)N[C@@H](CO)C(=O)N[C@H](C(=O)N[C@@H](C(=O)N[C@@H](C(=O)N[C@H]1C(=O)NCC(=O)N[C@@H](C(C)(O)CC)C(=O)N[C@H]([C@@H](C)CC)C(=O)N[C@@H](CCO)C(=O)N[C@@H](C)C(=O)N[C@H]([C@@H](C)CC)C(=O)N[C@@H](CCC(=O)O)C(=O)O[C@@H]1C)[C@@H](O)CN)[C@@H](O)C(=O)O)C(C)C (stereo partly drawn) [turnercyclamycin A] (Myristoyl-[dOrn]SV[dAsp(3R-OH)][X1][d(aThr)]G[X2][d(aIle)][hSer]A[d(aIle)]E; ester 6-C),body weight change,"[1]; 25 mg/kg (printed mg/mL) IV BID q12h, 24 hours after first treatment",no body weight drop was observed
same,mortality,"[1]; 25 mg/kg (printed mg/mL) IV BID q12h, n = 3",did not induce mortality in any mice
same,Body Weight,"[1]; 25 mg/kg IV bid (q12h) x1, mouse No. 7, Day 0 (first)",17 g
same,Body Weight,"[1]; 25 mg/kg IV bid (q12h) x1, mouse No. 7, Day 1",17 g
same,Body Weight,"[1]; 25 mg/kg IV bid (q12h) x1, mouse No. 8, Day 0 (first)",17 g
same,Body Weight,"[1]; 25 mg/kg IV bid (q12h) x1, mouse No. 8, Day 1",17 g
same,body weight change,"[1]; 50 mg/kg (printed mg/mL) IV BID q12h, 24 hours post-treatment",slight body weight losses were observed
same,mortality,"[1]; 50 mg/kg (printed mg/mL) IV BID q12h, n = 3",did not induce mortality in any mice
same,Body Weight,"[1]; 50 mg/kg IV bid (q12h) x1, mouse No. 4, Day 0 (first)",16 g
same,Body Weight,"[1]; 50 mg/kg IV bid (q12h) x1, mouse No. 4, Day 0 (second)",15 g
same,Body Weight,"[1]; 50 mg/kg IV bid (q12h) x1, mouse No. 4, Day 1",15 g
same,Body Weight,"[1]; 50 mg/kg IV bid (q12h) x1, mouse No. 5, Day 0 (first)",15 g
same,Body Weight,"[1]; 50 mg/kg IV bid (q12h) x1, mouse No. 5, Day 1",14 g
same,Body Weight,"[1]; 50 mg/kg IV bid (q12h) x1, mouse No. 6, Day 0 (first)",16 g
same,Body Weight,"[1]; 50 mg/kg IV bid (q12h) x1, mouse No. 6, Day 0 (second)",16 g
same,Body Weight,"[1]; 50 mg/kg IV bid (q12h) x1, mouse No. 6, Day 1",16 g
same,mortality,[1]; 100 mg/kg IV,fatal in the first mouse
same,well tolerated dose,"[1]; mice, IV BID q12h",up to 25 mg/kg
same,Maximum Tolerated Dose (MTD),"[1]; neutropenic female BALB/c mice, IV BID q12h, n = 3 per dose",25 mg/kg
same,"Plasma concentration, Mean",[2]; 0.05 h,53333 ng/mL
same,Sample concentration in plasma,"[2]; 0.05 h, sample 1, LC-MS/MS",52235 ng/mL
same,Sample concentration in plasma,"[2]; 0.05 h, sample 2, LC-MS/MS",51887 ng/mL
same,Sample concentration in plasma,"[2]; 0.05 h, sample 3, LC-MS/MS",55877 ng/mL
same,"Plasma concentration, Mean",[2]; 0.167 h,38646 ng/mL
same,Sample concentration in plasma,"[2]; 0.167 h, sample 1, LC-MS/MS",36107 ng/mL
same,Sample concentration in plasma,"[2]; 0.167 h, sample 2, LC-MS/MS",38906 ng/mL
same,Sample concentration in plasma,"[2]; 0.167 h, sample 3, LC-MS/MS",40924 ng/mL
same,"Plasma concentration, Mean",[2]; 1 h,29269 ng/mL
same,Sample concentration in plasma,"[2]; 1 h, sample 1, LC-MS/MS",24635 ng/mL
same,Sample concentration in plasma,"[2]; 1 h, sample 3, LC-MS/MS",29337 ng/mL
same,"Plasma concentration, Mean",[2]; 2 h,26200 ng/mL
same,Sample concentration in plasma,"[2]; 2 h, sample 1, LC-MS/MS",26373 ng/mL
same,Sample concentration in plasma,"[2]; 2 h, sample 2, LC-MS/MS",25446 ng/mL
same,Sample concentration in plasma,"[2]; 2 h, sample 3, LC-MS/MS",26782 ng/mL
same,"Plasma concentration, Mean",[2]; 4 h,22542 ng/mL
same,Sample concentration in plasma,"[2]; 4 h, sample 1, LC-MS/MS",22923 ng/mL
same,Sample concentration in plasma,"[2]; 4 h, sample 2, LC-MS/MS",22209 ng/mL
same,Sample concentration in plasma,"[2]; 4 h, sample 3, LC-MS/MS",22495 ng/mL
same,"Plasma concentration, Mean",[2]; 8 h,11971 ng/mL
same,Sample concentration in plasma,"[2]; 8 h, sample 1, LC-MS/MS",11661 ng/mL
same,Sample concentration in plasma,"[2]; 8 h, sample 2, LC-MS/MS",13130 ng/mL
same,Sample concentration in plasma,"[2]; 8 h, sample 3, LC-MS/MS",11123 ng/mL
same,"Plasma concentration, Mean",[2]; 24 h,931 ng/mL
same,Sample concentration in plasma,"[2]; 24 h, sample 1, LC-MS/MS",974 ng/mL
same,Sample concentration in plasma,"[2]; 24 h, sample 2, LC-MS/MS",764 ng/mL
same,Sample concentration in plasma,"[2]; 24 h, sample 3, LC-MS/MS",1054 ng/mL
same,CL,"[2]; mouse plasma, NCA",0.29 mL/min/kg
same,Sample concentration in plasma,"[2]; time printed 0 h, sample 1, LC-MS/MS",34373 ng/mL
same,Sample concentration in plasma,"[2]; time printed 0 h, sample 2, LC-MS/MS",31954 ng/mL
same,Sample concentration in plasma,"[2]; time printed 0 h, sample 3, LC-MS/MS",34645 ng/mL
daptomycin,volume of distribution,[3],0.1 L/kg

# — article doi:10.1101/2021.11.01.466777v1 (bioRxiv, 2021)
